Laboratory results from patent US20130090334A1, “AZABENZOXAZINE DERIVATIVES AS CRAC MODULATORS” (Hoffmann-La Roche Inc, priority 2011, published 2013).

The compounds below were run on Jurkat cell (assay: Jurkat IL-2 Production Assay). Conditions: Homo sapiens, serum condition (1% FBS/PHA or 30% FBS/PMA-ionomycin) not specified.
Type: cell-based
Protocol: Jurkat IL-2 Production Assay
Cell: Jurkat cell (ATCC) was grown in RPMI 1640 with 10% FBS and 1% penicillin/streptomycin. The cell density was kept at 1.2˜18×10^6/mL in culture flask before seeding into culture plate, and the cell density in the plate was 0.5×10^6/200 μL/well.
Culture media: RPMI 1640 with 1% FBS or 30% FBS for high serum assay.
Test compound: serial dilution was done in 100% DMSO, and intermediate dilution was done with RPMI 1640 medium with 1% FBS. The DMSO final concentration in culture well was 0.25%.
Stimulant: PHA (Sigma#L9017-10MG) was used for the assay with 1% F/BS in culture medium, and added after 10 minutes exposure of cell to compound/DMSO. The PHA final concentration in culture well was 5 μg/mL. PMA (Sigma#P-8139 5MG)/Ionomycin (Sigma# I0634-5MG) was used for the assay with 30% FBS in culture medium, and added at same time point as the 1% FBS culture assay. The final concentration of PMA was […], and lonomycin final concentration was 500 ng/mL.
Incubation: at 37° C. with 5% CO2 and 95% humidity for 18 h˜20 h.
IC50: IC50 was calculated with the data analysis software XLfit4, General Pharmacology model 251.

**Q.** Which IC50 does the source give for `CCn1nc(C(F)(F)F)cc1-c1cnc2c(c1)OCC(c1c(F)cccc1F)N2` (stereo not shown) [Example 1, 3-(2,6-Difluoro-phenyl)-7-(2-ethyl-5-trifluoromethyl-2H-pyrazol-3-yl)-3,4-dihydro-2H-pyrido[3,2-b][1,4]oxazine] here?
**A.** 140 nM

These compounds were tested on human whole blood (assay: Human Whole Blood (HWB) Assay, inhibition of T cell IL-2 production). Conditions: IL-2 in plasma, human whole blood stimulated with 10 μM Thapsigargin overnight, AlphaLISA.
Type: cell-based
Protocol: Human Whole Blood (HWB) Assay
Inhibition of T cell IL-2 production CRAC compounds were tested in human whole blood from normal donors. 200 μl of human whole blood was aliquoted into each well of a round bottom 96 well plate. Concentration-response curves were generated for test compounds and CsA (as controls) by performing serial dilutions of the compounds and incubating each concentration in a single well for 30 min (experiment was performed in triplicate). Following incubation, the blood was stimulated with 10 μM Thapsigargin (SIGMA) overnight at 37° C. IL-2 concentrations in the plasma were determined by AlphaLISA IL-2 assay (Perkin Elmer). Data analysis was performed using GraphPad PRISM5.

**Q.** With `Cc1sc(-c2ccccn2)nc1-c1cnc2c(c1)OCC(c1c(F)cccc1F)N2` (stereo not shown) [Example 4, 3-(2,6-Difluoro-phenyl)-7-(5-methyl-2-pyridin-2-yl-thiazol-4-yl)-3,4-dihydro-2H-pyrido[3,2-b][1,4]oxazine] as the compound, how does the IC50 read?
**A.** 6300 nM

**Q.** How did the IC50 turn out when `CCn1nc(-c2cccnc2)cc1-c1cnc2c(c1)OCC(c1c(F)cccc1F)N2` (stereo not shown) [Example 2, 3-(2,6-Difluoro-phenyl)-7-(2-ethyl-5-pyridin-3-yl-2H-pyrazol-3-yl)-3,4-dihydro-2H-pyrido[3,2-b][1,4]oxazine] was run?
**A.** 2680 nM

**Q.** Which IC50 does the source give for `Cc1ccc(-c2ncco2)cc1-c1cnc2c(c1)OCC(c1c(F)cccc1F)N2` (stereo not shown) [Example 7, 3-(2,6-Difluoro-phenyl)-7-(2-methyl-5-oxazol-2-yl-phenyl)-3,4-dihydro-2H-pyrido[3,2-b][1,4]oxazine] here?
**A.** 8160 nM

**Q.** For `CCn1nc(-c2cnccn2)cc1-c1cnc2c(c1)OCC(c1c(F)cccc1F)N2` (stereo not shown) [Example 3, 3-(2,6-Difluoro-phenyl)-7-(2-ethyl-5-pyrazin-2-yl-2H-pyrazol-3-yl)-3,4-dihydro-2H-pyrido[3,2-b][1,4]oxazine], which IC50 is on record?
**A.** 2400 nM

**Q.** `Cc1sc(-c2ccncc2)nc1-c1cnc2c(c1)OCC(c1c(F)cccc1F)N2` (stereo not shown) [Example 6, 3-(2,6-Difluoro-phenyl)-7-(5-methyl-2-pyridin-4-yl-thiazol-4-yl)-3,4-dihydro-2H-pyrido[3,2-b][1,4]oxazine] was tested. Which IC50 did it give?
**A.** 4520 nM

**Q.** For `CCc1sc(-c2cccnc2)nc1-c1cnc2c(c1)OCC(c1c(F)cccc1F)N2` (stereo not shown) [Example 5, 3-(2,6-Difluoro-phenyl)-7-(5-ethyl-2-pyridin-3-yl-thiazol-4-yl)-3,4-dihydro-2H-pyrido[3,2-b][1,4]oxazine], which IC50 is on record?
**A.** 560 nM
